Data reported in patent US20050209157A1, “Short bioactive peptides and methods for their use” (priority 2001, published 2005).
Values after ≈ are worked out from the molar mass of the structure shown. Read-outs that look alike come from different tables or passages of the source. No end group written: not given here.

Assays:
[1] = system: Pseudomonas aeruginosa ATCC 9027; experiment: Antimicrobial assay I, MIC by OD measurement; format: cell-based; settings: 37° C. for 24 hours, absorbance 620 nm
[2] = system: Staphylococcus aureus ATCC 6538; experiment: Antimicrobial assay I, MIC by OD measurement; format: cell-based; settings: 37° C. for 24 hours, absorbance 620 nm
[3] = system: yeast (Saccharomyces cerevisiae); experiment: Antimicrobial assay I, yeast assay in RPMI 1640; format: cell-based; settings: RPMI 1640 media
BMKC = experiment: Anti-cancer assay, MTT, LD50; format: cell-based; settings: BMKC cloned melanoma line, 24 hours with peptide
Text: (§1) Numbers are LD50 values (μg/mL).

H1299 = experiment: Anti-cancer assay, MTT, LD50; format: cell-based; settings: 24 hours with peptide, lung large cell carcinoma
Text: as §1

HeLaS3 = experiment: Anti-cancer assay, MTT, LD50; format: cell-based; settings: 24 hours with peptide, cervical carcinoma
Text: as §1

MCF7 = experiment: Anti-cancer assay, MTT, LD50; format: cell-based; settings: MCF7 breast adenocarcinoma line, MTT, 24 hours with peptide
Text: as §1

PC3 = experiment: Anti-cancer assay, MTT, LD50; format: cell-based; settings: 24 hours with peptide, prostate adenocarcinoma
Text: as §1

SW480 = experiment: Anti-cancer assay, MTT, LD50; format: cell-based; settings: SW480 colon adenocarcinoma line, 24 hours with peptide
Text: as §1

in vitro [4] = format: cell-based, human; settings: human, human red blood cells, pH 7, hemolytic assay, concentration at 50% hemolysis, 1 hour at 37° C.; read-out: LD50
P. aeruginosa H374 [5] = format: cell-based, Pseudomonas aeruginosa; settings: for MIC Cm-comb.: MIC of chloramphenicol with peptide at ¼ MIC; for MIC Nal-comb.: MIC of nalidixic acid with peptide at ¼ MIC; for FIC Index: 0.5 or less = synergy
Experimental: (§2) The synergistic effects of the inventive peptides with either chloramphenicol or nalidixic acid against efflux mutants of Pseudomonas aeruginosa were investigated. The MIC values were determined for either nalidixic acid or chloramphenicol alone as baselines. Peptides were added at their ¼ MIC concentration, and the concentration of either nalidixic acid or chloramphenicol to arrive at the MIC was determined. […] The fractional inhibitory concentration (FIC) index was used to determine synergy between peptides and antibiotics. Two-fold serial dilutions of antibiotic were tested in the presence of a constant amount of peptide, equal to one quarter of peptide MIC. The FIC index was determined as follows: FIC=0.25+MICantibiotic in combination/MICantibiotic alone. An FIC index of 0.5 or less is considered as synergy.

P. aeruginosa H774 = format: cell-based, Pseudomonas aeruginosa; settings: P. aeruginosa H744; nalidixic acid + peptide at ¼ MIC; 0.5 or less = synergy
Experimental: as §2

P. aeruginosa = format: cell-based, Pseudomonas aeruginosa; settings: P. aeruginosa H744; MIC of nalidixic acid with peptide at ¼ MIC
Experimental: as §2

WI38 = settings: MTT, 24 hours with peptide; normal fibroblast line
in vitro [6] = settings: human, WI38 normal lung fibroblast cells, LD50 WI38, WI38 normal lung fibroblast line, MTT, 24 hours with peptide
E. coli UB1005 = format: cell-based, Escherichia coli; settings: mean of three; 16 to 20 hours at 35° C.; in µg/mL
S. typhimurium 14028S = format: cell-based, Salmonella typhimurium; settings: mean of three; 16 to 20 hours at 35° C.; in µg/mL
P. aeruginosa H374 [7] = format: cell-based, Pseudomonas aeruginosa; settings: mean of three; 16 to 20 hours at 35° C.
[8] = system: human red blood cells (RBC); experiment: in vitro; format: cell-based; settings: hemolytic assay, concentration at 50% hemolysis, 1 hour at 37° C.
[9] = chloramphenicol + peptide at ¼ MIC
[10] = nalidixic acid + peptide at ¼ MIC, FIC=0.25+MIC comb/MIC alone

Compound | paerug9027 (MIC) [1] [µg/mL] | staph6538 (MIC) [2] [µg/mL] | yeast (MIC or MFC) [3] | LD50 BMKC (BMKC) [µg/mL] | H1299 LD50 (H1299) [µg/mL] | HeLaS3 LD50 (HeLaS3) [µg/mL] | LD50 MCF7 (MCF7) [µg/mL] | PC3 LD50 (PC3) [µg/mL] | LD50 SW480 (SW480) [µg/mL] | HC50 at 1 h (in vitro [4]) [µg/mL] | MIC Cm-comb. (P. aeruginosa H374 [5]) [µg/mL] | MIC Nal-comb. (P. aeruginosa H374 [5]) [µg/mL] | FIC Index (P. aeruginosa H374 [5]; [9]) | FIC Index (P. aeruginosa H374 [5]; [10]) | FIC Index (P. aeruginosa H774) | MIC Nal-comb. (P. aeruginosa) [µg/mL] | WI38 LD50 (WI38) [µg/mL] | CC50 at 24 h (in vitro [6]) [µg/mL] | E. coli UB1005 MIC (E. coli UB1005) | S. typhimurium 14028S MIC (S. typhimurium 14028S) | further results
FAKLLAKLAKLKL-NH2 [P66] | 50 | 5 | 100 µg/mL | 200 | 130 | 140 | 90 | 170 | 145 | 600 | 16 | 5000 | 1.25 | 1.25 | 1.25 | 624 | 240 | 240 |  |  | 
FAKKLAKKLAKLAL-NH2 [P45, FAKKLAKKLAKLAL-NH2] | 100 | 5 | 100 µg/mL | 160 | 330 | 160 | 260 | 170 | 180 | 700 | 16 | 2500 | 1.25 | 0.75 | 1.25 | 624 | 200 | 200 |  |  | 
CC(C)C[C@H](NC(=O)[C@H](C)NC(=O)[C@H](CCCCN)NC(=O)[C@H](CC(C)C)NC(=O)[C@H](C)NC(=O)[C@H](CC(C)C)NC(=O)[C@H](C)NC(=O)[C@H](CC(C)C)NC(=O)[C@H](CCCCN)NC(=O)[C@H](C)NC(=O)[C@H](CC(C)C)NC(=O)[C@H](CCCCN)NC(=O)[C@H](CCCCN)NC(=O)[C@H](C)NC(=O)[C@H](CC(C)C)NC(=O)[C@H](CCCCN)NC(=O)[C@H](CCCCN)NC(=O)[C@H](CC(C)C)NC(=O)[C@H](CCCCN)NC(=O)[C@H](CCCCN)NC(=O)[C@H](C)NC(=O)[C@H](CC(C)C)NC(=O)[C@H](CCCCN)NC(=O)[C@H](CCCCN)NC(=O)[C@H](C)NC(=O)[C@@H](N)Cc1ccccc1)C(=O)N[C@@H](C)C(=O)N[C@@H](CC(C)C)C(=O)N[C@@H](CCCCN)C(=O)N[C@@H](C)C(=O)O [P100, reference compound] |  |  |  | 120 |  |  | 175 |  | 82 |  | 16 | 2500 | 1.25 | 0.75 | 1.25 | 624 |  | 95 (≈ 29.4 µM) | 0.5 | 4 | P. aeruginosa H374 MIC (P. aeruginosa H374 [7]): 8 µg/mL; LD50 [8]: > (> indicates greater than 1000)
FAKKLAKKLKKLAKKLAK-OH [P71] | 15 | 15 | 200 µg/mL | 445 | 320 | 570 | 190 | 270 | 250 |  | 8 | 2500 | 0.75 | 0.75 | 1.25 | 624 | 355 | 355 | 2 | 8 | P. aeruginosa H374 MIC (P. aeruginosa H374 [7]): 4 µg/mL
FAKLLAKALKKFL-NH2 [P118] | 100 | 10 | 100 µg/mL | 135 | 74 | 87 | 70 | 330 | 115 | 700 | 16 | 2500 | 1.25 | 0.75 | 1.25 | 624 | 170 | 170 |  |  | 
FAKKLAKKLKKLAKKLAKLAKKL-NH2 [P307, reference compound] |  |  |  | 83 | 160 | 100 | 38 | 66 | 73 |  | 2 | 625 | 0.375 | 0.375 | 0.5 | 156 | 75 | 75 |  |  | LD50 [8]: > (> indicates greater than 1000)
KLALKLALKALKAAKLA-NH2 [P150] | 10 | 100 | > (> indicates greater than 200 μg/mL) | 190 | 185 | 320 | 160 | 74 | 235 | 650 | 8 | 1250 | 0.75 | 0.5 | 0.75 | 312 | 125 | 125 |  |  | 
LPKWKVFKKIEKVGRNIRNGIVKAGPAIAVLGEAKALG-NH2 [P306, reference compound] |  |  |  | 170 | 120 | 250 | 50 | 370 | 240 |  | 8 | 5000 | 0.75 | 1.25 | 0.75 | 312 | 320 | 320 | 4 | 4 | P. aeruginosa H374 MIC (P. aeruginosa H374 [7]): 8 µg/mL; LD50 [8]: > (> indicates greater than 1000)
KTKLFKKFAKKLAKKLKKLAKKL-OH [P80] | 100 | 10 | 100 µg/mL | 76 | 64 | 97 | 29 | 28 | 35 | 900 | 4 | 2500 | 0.5 | 0.75 | 1.25 | 624 | 28 | 28 |  |  | 
